Reference: US7759373B2, “Large conductance calcium-activated K channel opener” (Mitsubishi Tanabe Pharma Corporation, priority 2001, dated 2010)

test system: rhythmic bladder contractions induced by substance P; test: Inhibitory effect on the rhythmic bladder contractions induced by substance P in anesthetized rats; type: in vivo, rat; settings: time during which frequency of rhythmic contraction was completely inhibited, 0.25 mg/kg of the compound, substance P infusion
Description: Inhibitory effect on the rhythmic bladder contractions induced by substance P in anesthetized rats
For the experiments, Sprague-Dawley female rats (9 to 12 weeks old) weighing between 200 to 300 g were used. After urethane anesthetization (subcutaneously administered with a dose of 1.2 g/kg), cannulae were placed in both right and left femoral veins. One intravenous catheter was used for administration of compounds, and the other was for the substance P (0.33 μg/kg/min) infusion. We also cannulated into ureter to pass urine. Polyethylene catheters were inserted into carotid artery for continuous monitoring of arterial blood pressure and heart rate. For continuous infusion, transurethral bladder catheter was inserted into the bladder through the urethra and tied in place by a ligature around the urethral orifice. One end of the catheter was attached to a pressure transducer in order to measure intravesical pressure. The other end of the catheter was used for infusion of saline into the bladder. After stabilization of blood pressure and heart rate and after the bladder was emptied, cystometry was performed by filling the bladder slowly with about 0.6 ml of saline. After about 10 minutes, intravenous infusion of substance P (0.33 μg/kg/min) was started for stabilization of the micturition reflex. Compounds were administered after stable rhythmic bladder contraction was obtained over 15 minutes. All compounds were dissolved or suspended in saline containing 0.5% Tween 80 for intravenous administration (0.1 ml/kg).
A 100% inhibition time (minute) of the selected compounds of the present invention is shown in the following Table 65 with a rank of A, B or C. These ranges are as mentioned below. A≧20>B≧10>C (minute)

Compound	100% inhibition time range
O=C(O)Cc1sc(-c2ccc(F)cc2)nc1-c1ccc(Cl)cc1 [Preparation Example 573]	B (A≧20>B≧10>C (minute))
O=C(O)Cc1sc(-c2ccc(F)cc2)nc1-c1cccs1 [Preparation Example 577]	B (A≧20>B≧10>C (minute))
CN(C)c1ncc(-c2nc(-c3cccs3)c(CC(=O)O)s2)cn1 [Preparation Example 580]	C (A≧20>B≧10>C (minute))
COc1ccc(-c2nc(-c3ccc(Cl)c(F)c3)c(CC(=O)O)s2)cc1 [Preparation Example 582]	A (A≧20>B≧10>C (minute))
O=C(O)Cc1sc(-c2cc3ccccc3s2)nc1-c1ccc(Cl)c(F)c1 [Preparation Example 583]	B (A≧20>B≧10>C (minute))
CN(C)c1ccc(-c2nc(-c3ccc(Cl)c(F)c3)c(CC(=O)O)s2)cn1 [Preparation Example 585]	C (A≧20>B≧10>C (minute))
O=C(O)Cc1sc(-c2ccc(Cl)cc2)nc1-c1ccc(Cl)s1 [Preparation Example 588]	C (A≧20>B≧10>C (minute))
CN(C)c1ccc(-c2nc(-c3ccc(Cl)s3)c(CC(=O)O)s2)cc1 [Preparation Example 589]	A (A≧20>B≧10>C (minute))
COc1ccc(-c2nc(-c3ccc(Cl)s3)c(CC(=O)O)s2)cn1 [Preparation Example 591]	B (A≧20>B≧10>C (minute))
CN(C)c1ccc(-c2nc(CC(=O)O)c(-c3ccc(Cl)s3)s2)cn1 [Preparation Example 608]	B (A≧20>B≧10>C (minute))
CN(C)c1ncc(-c2nc(CC(=O)O)c(-c3ccc(Cl)s3)s2)cn1 [Preparation Example 611]	B (A≧20>B≧10>C (minute))
CC(C(=O)O)c1nc(-c2ccc(F)cc2)oc1-c1ccsc1 (centres unmarked) [Preparation Example 613]	C (A≧20>B≧10>C (minute))
O=C(O)Cc1nc(-c2ccc(F)cc2)oc1-c1cccs1 [Preparation Example 614]	C (A≧20>B≧10>C (minute))
NC(=O)Cc1nc(-c2ccc(F)cc2)oc1-c1ccsc1 [Preparation Example 615]	B (A≧20>B≧10>C (minute))
CCN(CC)C(=O)Cc1nc(-c2ccc(F)cc2)oc1-c1ccsc1 [Preparation Example 617]	B (A≧20>B≧10>C (minute))
NC(C(=O)O)c1nc(-c2ccc(F)cc2)oc1-c1ccc(Cl)s1 (centres unmarked) [Preparation Example 627]	C (A≧20>B≧10>C (minute))
CN(C)c1cnc(-c2nc(CC(=O)O)c(-c3ccc(Cl)s3)o2)cn1 [Preparation Example 628]	C (A≧20>B≧10>C (minute))
O=C(O)Cc1nc(-c2ccc3nccn3c2)oc1-c1ccc(Cl)s1 [Preparation Example 630]	C (A≧20>B≧10>C (minute))
Clc1cc(-c2ncc(-c3cccnc3)[nH]2)cs1 [Preparation example 24]	C (A≧20>B≧10>C (minute))
CCc1nc(-c2ccc(C#N)cc2)[nH]c1-c1ccccc1 [Preparation example 27]	B (A≧20>B≧10>C (minute))
CCc1nc(-c2ccc(C)nc2)[nH]c1-c1ccccc1 [Preparation example 28]	B (A≧20>B≧10>C (minute))

Compound	100% inhibition time range
CCCc1nc(-c2ccc(C#N)cc2)[nH]c1-c1ccccc1 [Preparation example 31]	A (A≧20>B≧10>C (minute))
Cl.Cl.N#CCCc1[nH]c(-c2ccc(F)cc2)nc1-c1cccnc1 [Preparation example 43, 5-(2-cyanoethyl)-2-(4-fluorophenyl)-4-(3-pyridyl)-imidazole dihydrochloride]	C (A≧20>B≧10>C (minute))
N#CCCc1nc(-c2ccc(F)cc2)[nH]c1-c1ccsc1 [Preparation example 46]	B (A≧20>B≧10>C (minute))
CCc1nc(-c2ccc(F)cc2)[nH]c1-c1ccc(C)nc1 [Preparation example 47]	B (A≧20>B≧10>C (minute))
CCc1nc(-c2ccc(F)cc2)[nH]c1-c1cccnc1C [Preparation example 48]	C (A≧20>B≧10>C (minute))
CCc1[nH]c(-c2sccc2CO)nc1-c1cccnc1.Cl.Cl [Preparation example 67, 5-ethyl-2-(3-hydroxymethylthiphen-2-yl)-4-(3-pyridyl)imidazole dihydrochloride]	B (A≧20>B≧10>C (minute))
CCc1[nH]c(-c2ccc(F)cc2)nc1C(=O)c1ccccn1 [Preparation example 72, 5-ethyl-2-(4-fluorophenyl)-imidazol-4-yl-(2-pyridyl) ketone]	C (A≧20>B≧10>C (minute))
CCc1[nH]c(-c2ccc(F)cc2)nc1-c1cccnc1.Cl.Cl [Preparation example 80, 5-ethyl-2-(4-fluorophenyl)-4-(3-pyridyl)imidazole dihydrochloride]	B (A≧20>B≧10>C (minute))
CCc1nc(-c2ccc(C)nc2)[nH]c1-c1cncs1 [Preparation example 83]	B (A≧20>B≧10>C (minute))
CCc1nc(-c2ccc(F)cc2)[nH]c1-c1cncnc1 [Preparation example 85]	C (A≧20>B≧10>C (minute))
CCCc1nc(-c2ccc(F)cc2)[nH]c1-c1cccnc1 [Preparation example 93]	B (A≧20>B≧10>C (minute))
CCc1c(-c2cccnc2)nc(-c2ccc(F)cc2)n1C.Cl.Cl [Preparation example 102, 5-ethyl-2-(4-fluoro-phenyl)-1-methyl-4-(3-pyridyl)imidazole dihydrochloride]	C (A≧20>B≧10>C (minute))
CNc1[nH]c(-c2ccc(F)cc2)nc1-c1ccccc1 [Preparation example 107, 5-methylamino-2-(4-fluorophenyl)-4-phenylimidazole]	B (A≧20>B≧10>C (minute))
COCc1nc(-c2ccc(F)cc2)[nH]c1-c1ccsc1 [Preparation example 122]	B (A≧20>B≧10>C (minute))
COCc1nc(-c2cccc(F)c2)[nH]c1-c1ccccc1 [Preparation example 123]	C (A≧20>B≧10>C (minute))
COCc1nc(-c2ccc(C#N)cc2)[nH]c1-c1ccccc1 [Preparation example 124]	B (A≧20>B≧10>C (minute))
COCc1nc(-c2ccc(C#N)cc2)[nH]c1-c1cccnc1 [Preparation example 125]	C (A≧20>B≧10>C (minute))
C[S+]([O-])Cc1nc(-c2ccc(C#N)cc2)[nH]c1-c1ccccc1 (centres unmarked) [Preparation example 137]	C (A≧20>B≧10>C (minute))
O=C(O)Cc1nc(-c2ccc(Cl)cc2)oc1-c1cccnc1 [Preparation example 142]	C (A≧20>B≧10>C (minute))
CCc1[nH]c(-c2cc(Cl)sc2S(=O)(=O)O)nc1-c1cccnc1.Cl.Cl [Preparation example 143, 2-(5-Chloro-2-sulfothiophen-3-yl)-5-ethyl-4-(3-pyridyl)-imidazole dihydrochloride]	C (A≧20>B≧10>C (minute))
CCc1[nH]c(-c2cc(Cl)sc2S(N)(=O)=O)nc1-c1cccnc1.Cl.Cl [Preparation example 144, 2-(5-Chloro-2-sulfamoylthiophen-3-yl)-5-ethyl-4-(3-pyridyl) imidazole dihydrochloride]	C (A≧20>B≧10>C (minute))

test system: isolated rabbit urinary bladder; test: Relaxation effect on potassium-induced contraction of isolated rabbit urinary bladder; type: cell-based; settings: 50% relaxation concentration; high-K+ (30 mM) pre-contracted rabbit bladder strips; relaxation as percentage of the maximum produced by 0.1 mM papaverine; read-out: EC50 value range
Description: Relaxation effect on potassium-induced contraction of isolated rabbit urinary bladder
Urinary bladder was isolated from Male NZW rabbits (2.0-3.5 kg) and immersed in ice-cold Krebs-bicarbonate solution (in mM: 118 NaCl, 4.7 KCl, 1.2, 2.5 CaCl2, MgSO4, 1.2 KH2PO4, 11 glucose, 25 NaHCO3). The urinary bladder was cut into longitudinal strips (5 mm length, 3-4 mm width) after mucosal layer was removed. Preparations were mounted in organ baths containing 10 ml of Krebs solution maintained at 37° C. and gassed with 95% O2/5% CO2. Accordingly, preparations were stretched with an initial tension of 2.0±1.0 g, and changes in isometric tension were measured by force-displacement transducer. The preparations were pre-contracted by changing organ-bath solution into high-K^+ (30 mM) Krebs solution (in mM: 92.7 NaCl, 30 KCl, 1.2, 2.5 CaCl2, MgSO4, 1.2 KH2PO4, 11 glucose, 25 NaHCO3).
After stable tension was obtained, compounds were added into organ baths cumulatively (10^−8M-10^−4M). The effects of compounds were expressed as a percentage of the maximum relaxation produced by 0.1 mM papaverine. 50% relaxation concentration (EC50) was calculated and EC50 value range (μM) of the compounds of the present invention was shown in the following Table 64 with a rank of A, B or C. These ranges are as mentioned below. 3≧C≧1≧B≧0.5≧A

Compound	EC50 [nM]
5-(5-chlorothiophen-2-yl)-2-(4-fluorophenyl)oxazole-4-yl propionic acid sodium salt [Preparation Example 339]	1000 to 3000

same assay, conditions: Oryctolagus cuniculus; 50% relaxation concentration; high-K+ (30 mM) pre-contracted rabbit bladder strips; relaxation as percentage of the maximum produced by 0.1 mM papaverine; read-out: EC50 value range

EC50 [nM]	Compound
1000 to 3000	CC(C)c1nc(-c2ccc(F)cc2)[nH]c1-c1ccsc1 [Preparation Example 169]
1000 to 3000	CCCCc1nc(-c2ccc(F)cc2)[nH]c1-c1ccsc1 [Preparation Example 170]
1000 to 3000	Fc1ccc(-c2nc(CC(F)(F)F)c(-c3ccsc3)[nH]2)cc1 [Preparation Example 173]
1000 to 3000	CCCc1nc(-c2ccccc2)[nH]c1-c1ccccc1 [Preparation Example 180]
